Measured values: paper PMC11570842 (The Journal of Biological Chemistry, 2024)

Target: T1, Ubp2 (Saccharomyces cerevisiae, UniProt Q01476)
T1 sequence (Q01476 1-1272): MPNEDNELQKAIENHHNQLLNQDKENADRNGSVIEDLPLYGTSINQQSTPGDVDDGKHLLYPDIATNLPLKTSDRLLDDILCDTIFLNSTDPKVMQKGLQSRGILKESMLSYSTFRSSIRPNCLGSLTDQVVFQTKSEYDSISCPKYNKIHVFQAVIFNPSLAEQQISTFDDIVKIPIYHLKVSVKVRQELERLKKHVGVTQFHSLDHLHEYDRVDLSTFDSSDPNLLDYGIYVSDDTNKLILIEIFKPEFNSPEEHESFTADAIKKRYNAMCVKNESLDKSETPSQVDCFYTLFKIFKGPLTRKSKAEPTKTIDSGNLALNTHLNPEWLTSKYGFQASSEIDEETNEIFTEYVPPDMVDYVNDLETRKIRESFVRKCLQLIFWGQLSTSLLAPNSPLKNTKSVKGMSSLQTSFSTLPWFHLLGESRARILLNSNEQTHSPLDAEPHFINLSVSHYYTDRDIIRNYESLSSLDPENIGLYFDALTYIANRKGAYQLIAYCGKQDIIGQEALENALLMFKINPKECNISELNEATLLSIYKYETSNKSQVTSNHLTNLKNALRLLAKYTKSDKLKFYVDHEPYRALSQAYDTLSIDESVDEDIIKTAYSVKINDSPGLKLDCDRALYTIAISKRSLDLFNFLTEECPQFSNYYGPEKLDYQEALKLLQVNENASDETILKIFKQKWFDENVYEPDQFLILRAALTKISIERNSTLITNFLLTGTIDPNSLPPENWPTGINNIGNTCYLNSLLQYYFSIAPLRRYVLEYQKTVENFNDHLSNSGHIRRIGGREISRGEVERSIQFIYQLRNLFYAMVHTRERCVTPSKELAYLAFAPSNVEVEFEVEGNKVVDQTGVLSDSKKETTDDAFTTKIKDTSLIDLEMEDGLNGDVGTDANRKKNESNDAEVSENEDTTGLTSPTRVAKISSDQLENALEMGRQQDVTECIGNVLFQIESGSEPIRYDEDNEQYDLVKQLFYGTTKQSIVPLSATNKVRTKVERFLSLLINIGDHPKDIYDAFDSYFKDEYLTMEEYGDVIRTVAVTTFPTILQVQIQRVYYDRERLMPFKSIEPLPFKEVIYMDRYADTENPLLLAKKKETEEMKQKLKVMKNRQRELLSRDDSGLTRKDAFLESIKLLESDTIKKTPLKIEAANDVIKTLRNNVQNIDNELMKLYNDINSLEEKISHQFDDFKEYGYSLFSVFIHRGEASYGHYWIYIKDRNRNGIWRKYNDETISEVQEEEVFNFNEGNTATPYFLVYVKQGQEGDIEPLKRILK
Conditions: 100 uM PR-619, 5 min preincubation; 0.75 uM Ub-Rho, 50 mM Tris-HCl pH 7.5, 150 mM NaCl, 30 C; activity abrogated

N#CSc1cc(SC#N)c(N)nc1N [PR-619]
fluorogenic Ub-rhodamine 110 cleavage: pan DUB inhibitor PR-619 and the cysteine alkylator iodoacetamide (IAA) abrogated Ubp2 enzymatic activity
